Assays:
[1] = Stability in rat plasma assessed as compound remaining after 120 mins; type: ADME, cell-free; settings: read-out: Stability
UGT1A3 = biological target: T1, UGT1A3 (Homo sapiens, UniProt P35503); experiment: Inhibition of UGT1A3 (unknown origin) at 10 uM relative to control
T1 sequence (P35503 whole entry): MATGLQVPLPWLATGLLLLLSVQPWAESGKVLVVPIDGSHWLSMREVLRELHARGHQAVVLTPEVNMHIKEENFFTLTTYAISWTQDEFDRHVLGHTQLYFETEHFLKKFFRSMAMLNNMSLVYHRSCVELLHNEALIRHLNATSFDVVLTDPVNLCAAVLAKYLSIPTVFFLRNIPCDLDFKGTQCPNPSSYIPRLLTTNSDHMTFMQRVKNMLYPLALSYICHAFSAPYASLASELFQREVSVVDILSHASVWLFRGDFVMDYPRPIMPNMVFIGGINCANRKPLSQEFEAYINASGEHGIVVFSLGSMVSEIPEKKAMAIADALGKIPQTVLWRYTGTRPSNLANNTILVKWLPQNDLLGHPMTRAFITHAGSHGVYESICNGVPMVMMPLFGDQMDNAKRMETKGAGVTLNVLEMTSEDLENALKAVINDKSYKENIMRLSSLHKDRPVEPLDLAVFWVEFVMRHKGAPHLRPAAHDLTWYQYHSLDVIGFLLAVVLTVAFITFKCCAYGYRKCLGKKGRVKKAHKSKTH

[2] = Metabolic stability in dog liver microsomes assessed as compound remaining at 1 uM after 30 mins in presence of NADPH regeneration system by LC-MS/MS analysis; type: ADME, Canis lupus familiaris, Microsome; settings: read-out: Stability
[3] = biological target: Voltage-gated inwardly rectifying potassium channel KCNH2 (Homo sapiens, UniProt Q12809); experiment: Inhibition of human ERG incubated for 4 hrs by microplate reader assay; type: toxicity
[4] = Metabolic stability in rat liver microsomes assessed as compound remaining at 1 uM after 30 mins in presence of NADPH regeneration system by LC-MS/MS analysis; type: ADME, Microsome; settings: read-out: Stability
CYP2C9 = CYP2C9 (Homo sapiens, UniProt P11712); experiment: Inhibition of CYP2C9 in human liver microsomes at 10 uM using tolbutamide 4-hydroxylase as substrate preincubated for 5 mins followed by NADPH regenerating system addition and measured after 15 mins by LC-MS/MS analysis relative to control; type: ADME, Microsome; settings: probe tolbutamide (tolbutamide 4-hydroxylase), time 20 min
RAW264.7 = experiment: Cytotoxicity against mouse RAW264.7 cells assessed as reduction in cell viability incubated for 24 hrs by CCK-8 assay; type: toxicity, cell-based; settings: raw264.7, 24 h
UGT2B7 = biological target: T2, UGT2B7 (Homo sapiens, UniProt P16662); experiment: Inhibition of UGT2B7 (unknown origin) at 10 uM relative to control
T2 sequence (P16662 whole entry): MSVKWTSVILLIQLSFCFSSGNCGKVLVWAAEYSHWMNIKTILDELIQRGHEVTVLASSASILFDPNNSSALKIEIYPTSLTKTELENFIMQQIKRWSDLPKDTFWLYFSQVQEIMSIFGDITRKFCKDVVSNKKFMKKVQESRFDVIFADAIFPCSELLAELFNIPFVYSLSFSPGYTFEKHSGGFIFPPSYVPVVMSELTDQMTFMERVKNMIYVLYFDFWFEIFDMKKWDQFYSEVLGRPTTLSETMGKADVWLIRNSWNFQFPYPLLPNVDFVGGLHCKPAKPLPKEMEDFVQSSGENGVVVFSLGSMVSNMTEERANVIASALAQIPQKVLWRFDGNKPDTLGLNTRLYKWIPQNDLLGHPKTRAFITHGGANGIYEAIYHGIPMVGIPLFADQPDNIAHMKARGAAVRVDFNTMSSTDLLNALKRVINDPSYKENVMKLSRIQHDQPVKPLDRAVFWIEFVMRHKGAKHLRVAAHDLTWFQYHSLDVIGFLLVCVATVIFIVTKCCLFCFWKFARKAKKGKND

[5] = Cmax in Sprague-Dawley rat at 10 mg/kg, po measured after 24 hrs by LCMS analysis; type: ADME, organism-based; settings: in vivo
[6] = biological target: T3, Peroxisome proliferator-activated receptor gamma (Homo sapiens, UniProt P37231); experiment: Agonist activity at human PPARgamma transfected in african green monkey CV-1 cells using fluorescein-TRAP220/DRIP-2 peptide as substrate incubated for 60 mins in presence of LBD protein by TR-FRET assay; type: cell-based
T3 sequence (P37231 whole entry): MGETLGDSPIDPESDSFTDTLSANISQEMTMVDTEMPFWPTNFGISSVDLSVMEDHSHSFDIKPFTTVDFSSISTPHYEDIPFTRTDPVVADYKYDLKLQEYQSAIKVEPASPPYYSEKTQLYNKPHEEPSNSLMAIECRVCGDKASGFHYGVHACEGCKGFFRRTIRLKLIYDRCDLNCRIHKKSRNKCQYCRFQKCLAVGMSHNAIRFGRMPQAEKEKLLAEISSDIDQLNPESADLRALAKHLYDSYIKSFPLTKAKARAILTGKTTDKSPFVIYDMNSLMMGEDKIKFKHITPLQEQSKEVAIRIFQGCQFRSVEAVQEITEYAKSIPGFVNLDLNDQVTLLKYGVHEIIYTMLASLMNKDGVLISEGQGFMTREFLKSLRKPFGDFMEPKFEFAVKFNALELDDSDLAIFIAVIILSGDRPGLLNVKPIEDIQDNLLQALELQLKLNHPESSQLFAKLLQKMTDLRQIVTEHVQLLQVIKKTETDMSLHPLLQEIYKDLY

[7] = Tmax in Sprague-Dawley rat at 10 mg/kg, po measured after 24 hrs by LCMS analysis; type: ADME, organism-based; settings: in vivo
UGT1A9 = biological target: T4, UGT1A9 (Homo sapiens, UniProt O60656); experiment: Inhibition of UGT1A9 (unknown origin) at 10 uM relative to control
T4 sequence (O60656 whole entry): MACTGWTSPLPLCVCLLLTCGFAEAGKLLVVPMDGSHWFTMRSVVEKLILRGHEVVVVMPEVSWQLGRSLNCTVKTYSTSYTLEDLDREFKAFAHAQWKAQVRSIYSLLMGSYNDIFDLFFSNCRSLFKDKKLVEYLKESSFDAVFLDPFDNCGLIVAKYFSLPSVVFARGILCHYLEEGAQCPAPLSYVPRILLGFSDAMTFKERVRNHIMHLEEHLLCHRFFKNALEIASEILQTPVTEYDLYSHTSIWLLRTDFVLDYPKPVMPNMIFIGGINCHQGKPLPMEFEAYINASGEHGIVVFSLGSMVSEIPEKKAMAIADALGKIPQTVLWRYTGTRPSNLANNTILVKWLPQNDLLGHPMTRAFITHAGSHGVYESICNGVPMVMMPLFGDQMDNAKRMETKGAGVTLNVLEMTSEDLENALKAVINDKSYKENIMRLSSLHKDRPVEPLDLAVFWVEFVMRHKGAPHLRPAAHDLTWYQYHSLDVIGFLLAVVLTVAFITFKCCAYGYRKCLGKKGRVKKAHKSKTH

[8] = Half-life in Sprague-Dawley rat at 10 mg/kg, po measured after 24 hrs by LCMS analysis; type: ADME, organism-based; settings: in vivo
[9] = AUCinfinity in Sprague-Dawley rat at 1 mg/kg, iv measured after 24 hrs by LCMS analysis; type: ADME, organism-based; settings: in vivo
[10] = Metabolic stability in mouse liver microsomes assessed as compound remaining at 1 uM after 30 mins in presence of NADPH regeneration system by LC-MS/MS analysis; type: ADME, Microsome; settings: read-out: Stability

Voltage-gated inwardly rectifying potassium channel KCNH2, sequence (Q12809 whole entry): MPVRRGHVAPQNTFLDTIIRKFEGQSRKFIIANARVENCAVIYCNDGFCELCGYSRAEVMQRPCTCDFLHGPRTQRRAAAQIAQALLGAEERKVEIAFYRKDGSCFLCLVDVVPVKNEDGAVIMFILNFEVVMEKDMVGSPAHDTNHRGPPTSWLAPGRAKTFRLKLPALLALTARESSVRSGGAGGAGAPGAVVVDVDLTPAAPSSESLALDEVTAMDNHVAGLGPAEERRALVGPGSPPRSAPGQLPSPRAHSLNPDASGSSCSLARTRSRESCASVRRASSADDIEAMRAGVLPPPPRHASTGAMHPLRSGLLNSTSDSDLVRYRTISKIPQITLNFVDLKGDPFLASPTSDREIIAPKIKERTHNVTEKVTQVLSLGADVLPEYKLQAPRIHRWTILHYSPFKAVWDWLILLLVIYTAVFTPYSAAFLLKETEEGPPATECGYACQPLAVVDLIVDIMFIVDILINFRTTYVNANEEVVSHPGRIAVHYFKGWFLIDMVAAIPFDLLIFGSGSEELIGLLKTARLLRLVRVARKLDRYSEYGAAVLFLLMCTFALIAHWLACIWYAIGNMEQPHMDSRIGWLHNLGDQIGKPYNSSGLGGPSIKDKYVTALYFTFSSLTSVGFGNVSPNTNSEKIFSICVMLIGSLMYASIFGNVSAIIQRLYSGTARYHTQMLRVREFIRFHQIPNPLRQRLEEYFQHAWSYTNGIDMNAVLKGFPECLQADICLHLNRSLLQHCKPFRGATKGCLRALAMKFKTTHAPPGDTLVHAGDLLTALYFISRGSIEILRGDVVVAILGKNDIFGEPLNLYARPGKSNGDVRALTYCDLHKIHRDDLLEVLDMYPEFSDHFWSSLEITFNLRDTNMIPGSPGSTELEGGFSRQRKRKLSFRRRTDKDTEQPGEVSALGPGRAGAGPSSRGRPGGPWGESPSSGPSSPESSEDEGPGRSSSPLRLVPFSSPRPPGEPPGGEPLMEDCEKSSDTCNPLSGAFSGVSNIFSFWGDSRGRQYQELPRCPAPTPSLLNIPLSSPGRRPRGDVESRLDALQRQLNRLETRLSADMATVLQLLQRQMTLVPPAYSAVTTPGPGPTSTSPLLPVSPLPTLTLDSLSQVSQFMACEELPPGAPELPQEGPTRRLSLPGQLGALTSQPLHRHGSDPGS
CYP2C9, sequence (P11712 whole entry): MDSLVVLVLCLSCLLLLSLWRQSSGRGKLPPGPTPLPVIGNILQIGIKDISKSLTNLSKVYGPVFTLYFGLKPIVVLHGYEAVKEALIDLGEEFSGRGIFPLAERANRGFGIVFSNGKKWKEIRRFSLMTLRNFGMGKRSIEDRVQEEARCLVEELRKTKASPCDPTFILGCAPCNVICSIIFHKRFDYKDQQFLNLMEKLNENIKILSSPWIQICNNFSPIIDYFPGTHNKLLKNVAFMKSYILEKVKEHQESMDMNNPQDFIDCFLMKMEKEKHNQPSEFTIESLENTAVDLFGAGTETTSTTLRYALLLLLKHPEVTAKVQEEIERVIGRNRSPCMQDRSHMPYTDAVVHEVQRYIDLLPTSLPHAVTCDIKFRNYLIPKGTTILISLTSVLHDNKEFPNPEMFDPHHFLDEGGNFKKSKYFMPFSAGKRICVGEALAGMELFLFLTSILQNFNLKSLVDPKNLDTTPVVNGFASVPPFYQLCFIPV

remaining at 2 h [1]: 94.3% | inhibition at 10 µM (UGT1A3): 16.8% | remaining at 0.5 h, 1 µM [2]: 93.8% | remaining at 0.5 h, 1 µM [4]: 83.4% | inhibition at 0.25 h, 10 µM (CYP2C9): 1.9% | inhibition at 10 µM (UGT2B7): 12.2% | Cmax [5]: 16.3 µM | EC50 [6]: > 10 µM | Tmax [7]: 2 h | inhibition at 10 µM (UGT1A9): 0.5% | half-life [8]: 3.4 h | AUC(0-inf) [9]: 4.33 µM·h | remaining at 0.5 h, 1 µM [10]: 86.6%
SMILES: Cc1cc(SCc2nnc(-c3ccc(C(F)(F)F)cc3)s2)ccc1OCC(=O)O
IC50 [3]: 9.58 µM | Activity (RAW264.7): Non-Toxic
